Test results as given in patent US20240075009A1, “TREATMENT OF S[…] PSILOCIN OR PSILOCYBIN” (NEW YORK UNIVERSITY, priority 2021, published 2024).

Tests used:
Assay type in all cases: in vivo, human
[1] = system: cancer patients; assay: Composite desire for hastened death (DHD) score (5 loss-of-meaning items of the Demoralization Scale), crossover trial with psychotherapy; details: for DHD within-subjects reduction relative to baseline: combined groups
Experimental: (§1) 29 participants were randomly assigned to one of two groups: psilocybin (0.3 mg/kg) on the first medication session followed by niacin (250 mg) on the second session (i.e. psilocybin-first group), or niacin (250 mg) on the first medication session followed by psilocybin (0.3 mg/kg) on the second session (i.e. niacin-first group). Psilocybin and niacin were administered in identically appearing gelatin capsules.
(§2) Participants received three 2-hour preparatory psychotherapy sessions in order to review the purpose and intention of participation in the study, treatment goals, and structure of the treatment sessions. Medications were administered in 8-hour treatment sessions which included a discussion of the participant's subjective experience with the treatment team to consolidate the memory of the experience and to begin the process of post-integrative psychotherapy. Participants also received three 2-hour post-medication integration sessions (repeated after the second dosing session) to further consolidate the memory of the experience and to continue the process of psychological integration. All psychotherapy treatment sessions were delivered by a dyadic therapy team trained in a blend of psychotherapies with an evidence base to support their use in cancer patients (drawing upon principles of palliative care therapy, existential psychotherapy, cognitive-behavioural therapy, psychoanalysis therapy, and transpersonal psychology) and were taught about the safety and clinical pharmacology of psilocybin. Each therapy dyad underwent six confidential one-to-one sessions to build their alliance and exchange ideas about psychedelic therapy. The trial employed a crossover design at seven weeks following the first drug administration, with an outcome assessment at 6.5 months (26 weeks) following the second drug administration (i.e. after the crossover).
(§3) Two long-term follow ups (LTFUs) were carried out to assess the continued effect of psilocybin.
(§4) Primary outcomes (suicidal ideation and desire for hastened death) were measured according to the following methods: • Beck Depression Inventory-II (BDI-II) (Beck et al., 1988)— this is a widely used self-report measure to assess depression. The BDI-II comprises 21 questions related to depressive symptoms experienced over the previous two weeks, and is rated on a […] (total score ranges from 0-63). Scores greater than 12 correlate with clinical depression. […] Item #9 on the BDI queries suicidal ideation with the following options: 0=I don't have any thoughts of killing myself; 1=I have thoughts of killing myself, but I would not carry them out; 2=I would like to kill myself; 3=I would kill myself if I had the chance. The BDI-II was assessed at baseline, 1-day prior to dose-1, 8-hours after dose-1, 1-day after dose-1, 2-weeks after dose-1, 6-weeks after dose-1, 7-weeks after dose-1 (corresponding to 1-day prior to dose-2), 1-day after dose-2, 6-weeks after dose-2, 26-weeks after dose-2, and at the 3.2 year and 4.5 year LTFU assessments. • The Brief Symptom Inventory (BSI) (Derogatis 1993) is a 53-item self-report questionnaire that assesses a range of psychiatric symptoms, generating 9 domains (depression, anxiety, phobic anxiety, somatization, obsession-compulsion, interpersonal sensitivity, hostility, paranoid ideation, psychoticism) and a global severity index.

[2] = system: cancer patients; assay: Composite suicidal ideation (SI) score (BDI-II item #9 + BSI item #9, T-scores), crossover trial with psychotherapy; details: for Composite SI within-subject effect size relative to baseline, Cohen's d: psilocybin-1st group
Experimental: as §1, §2, §3, §4

[3] = system: cancer patients; assay: Primary outcomes DHD and SI taken together: within-subject effect sizes across measures and time points
Experimental: as §1
Participants received three 2-hour preparatory psychotherapy sessions in order to review the purpose and intention of participation in the study, treatment goals, and structure of the treatment sessions. Medications were administered in 8-hour treatment sessions which included a discussion of the participant's subjective experience with the treatment team to consolidate the memory of the experience and to begin the process of post-integrative psychotherapy. […]
Primary outcomes (suicidal ideation and desire for hastened death) were measured according to the following methods: • Beck Depression Inventory-II (BDI-II) (Beck et al., 1988)— this is a widely used self-report measure to assess depression. […] It is measured on a Likert scale: 0=Not at all; 1=Little, 2=Moderately; 3=Quite a bit; 4=Extremely. […]

[4] = after crossover, both dose-sequence groups combined, 6.5-month follow-up, p<0.001

Row | Structure (SMILES) | DHD mean score relative to baseline, within psilocybin-1st group ([1]; 2-weeks post dose-1, pre-crossover, p=0.005, n=6) | DHD between-group difference, psilocybin-1st vs niacin-1st, Cohen's d ([1]; 2-weeks post dose-1, pre-crossover, psilocybin 0.3 mg/kg single dose, n=6 vs n=5) | DHD within-subjects change relative to baseline [1, 4] | DHD within-subjects reduction relative to baseline ([1]; after crossover, 3.2-year follow-up, p<0.001) | DHD within-subjects reduction relative to baseline ([1]; after crossover, 4.5-year follow-up, p<0.001) | Composite SI within-subjects change relative to baseline [2, 4] | Composite SI, between-group comparison psilocybin-1st vs niacin-1st ([2]; prior to the crossover, psilocybin 0.3 mg/kg, interaction p=0.065, group p=0.614) | Composite SI within-subject effect size relative to baseline, Cohen's d ([2]; 2-weeks post-dose 1, p<0.001) | Composite SI within-subject effect size relative to baseline, Cohen's d ([2]; 7-weeks post-dose 1, p<0.001) | Composite SI within-subject effect size relative to baseline, Cohen's d ([2]; 8-hours post-dose 1, p<0.001) | Within-subjects effect sizes across DHD and SI and time points, Cohen's d range ([3]; after crossover, combined groups, 6.5 months to 4.5 years) | Within-subject effect sizes across DHD and SI and time points, Cohen's d range ([3]; psilocybin-1st group, pre-crossover, statistically significant reductions) | Composite DHD score, main effect of time within group ([1]; niacin-1st group (250 mg), prior to the crossover, p=0.079, n=5) | Composite suicidality/SI score, main effect of time within group ([2]; niacin-1st group (250 mg), prior to the crossover, p=0.065, n=5)
1 | CN(C)CCc1c[nH]c2cccc(OP(=O)(O)O)c12 [psilocybin, [3-(2-dimethylaminoethyl)-1H-indol-4-yl] dihydrogen phosphate] | differed significantly | 1.32 | statistically significant within-subjects reductions | remained significant | remained significant | statistically significant within-subjects reductions | no significant differences between the two groups | 2.40 | 3.50 | 2.40 | 1.51-2.56 | 1.20-3.50 |  | 
2 | O=C(O)c1cccnc1 [niacin] |  |  |  |  |  |  |  |  |  |  |  |  | no significant main effect of time | no significant main effect of time
